Results: patent US20160355483A1, “COMPOUND BINDING TO PPARG BUT NOT ACTING AS PROMOTER AND PHARMACEUTICAL COMPOSITION FOR TREATING PPARG-RELATED DISEASES CONTAINING SAME AS ACTIVE INGREDIENT” (Hyundai Pharm Co., Ltd., priority 2014, published 2016)

molecular target: T1, PPARG (peroxisome proliferator activated receptor-gamma), GST-PPARG-LBD (Homo sapiens, UniProt P37231); experiment: LanthaScreen TR-FRET PPARG Competitive Binding Assay; set-up: key: “+” indicates the degree of the binding activity, and as the number of “+” increases, the binding activity is stronger; ++: “+” indicates the degree of the binding activity, and as the number of “+” increases, the binding activity is stronger; +++: “+” indicates the degree of the binding activity, and as the number of “+” increases, the binding activity is stronger; ++++: “+” indicates the degree of the binding activity, and as the number of “+” increases, the binding activity is stronger; details: degree of binding activity
T1 construct: 15 μL of 5 nM GST-PPARG-LBD and 5 nM Tb-GST-antibody were added; purchased Invitrogen PV4894
T1 sequence (P37231 238-503 limits assumed): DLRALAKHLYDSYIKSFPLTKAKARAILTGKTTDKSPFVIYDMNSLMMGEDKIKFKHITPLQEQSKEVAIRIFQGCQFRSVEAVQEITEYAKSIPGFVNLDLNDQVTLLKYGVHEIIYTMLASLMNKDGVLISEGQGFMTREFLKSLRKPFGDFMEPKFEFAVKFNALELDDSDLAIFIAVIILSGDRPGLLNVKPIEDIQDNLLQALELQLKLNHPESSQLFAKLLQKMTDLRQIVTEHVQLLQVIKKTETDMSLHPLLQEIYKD
Experimental: The following experiment was performed to evaluate the PPARG (peroxisome proliferator activated receptor-gamma) binding capacity and transcriptional activity of the compounds prepared in the examples of the invention. For the experiment, LanthaScreen™ TR-FRET PPARG Competitive Binding Assay Kit (PV4894, Invitrogen) was used according to the manufacturer's instruction. […] The mixture was loaded in a 384-well plate (Greiner, 784075) by 20 μL per well, followed by reaction at room temperature for 1 hour. Upon completion of the reaction, fluorescence value was measured by using Flexstation 3 (Molecular Devices) with time-resolved fluorescence (RFU) mode (excitation 1: 340 nm, emission 1: 518 nm, excitation 2: 340 nm, emission 2: 488 nm, integration delay 50 μs, integration 400 μs). The results were calculated by using 518 nm RFUs/488 nm RFUs ratio. The activity of the compounds of the invention was compared with that of the vehicle, which was calculated by ratio according to the formula [100%−compound of the example ratio/vehicle ratio]. At this time, the binding activity ratio to rosiglitazone was compared.

SMILES	Binding assay (1 μLM)
C[C@H](NC(=O)c1ccc2c(c1)CCCN2Cc1ccc(-c2ccccc2C(N)=O)cc1)c1ccc(F)c(F)c1 [Example 39, (S)-1-((2′-carbamoyl-[1,1′-biphenyl]-4-yl)methyl)-N-(1-(3,4-difluorophenyl)ethyl)-1,2,3,4-tetrahydroquinoline-6-carboxamide]	+++
C[C@H](NC(=O)c1ccc2c(c1)CCCN2Cc1ccc(-c2ccccc2C(=O)O)cc1)c1ccccc1F [Example 24, (S)-4′-((6-((1-(2-fluorophenyl)ethyl)carbamoyl)-3,4-dihydroquinoline-1(2H)-yl)methyl)-[1,1′-biphenyl]-2-caboxylic acid]	+++
NC(=O)c1ccccc1-c1ccc(CN2CCCc3cc(C(=O)NCc4ccc5c(c4)OCCO5)ccc32)cc1 [Example 52, 1-((2′-carbamoyl-[1,1′-biphenyl]-4-yl)methyl)-N-((2,3-dihydrobenzo[b][1,4]dioxin-6-yl)methyl)-1,2,3,4-tetrahydroquinoline-6-carboxamide]	+++
O=C(NCc1cccc(OC(F)(F)F)c1)c1ccc2c(c1)CCCN2Cc1ccc(-c2ccccc2C(=O)O)cc1 [Example 32, 4′-((6-((3-(trifluoromethoxy)benzyl)carbamoyl)-3,4-dihydroquinoline-1(2H)-yl)methyl)-[1,1′-biphenyl]-2-carboxylic acid]	+++
C[C@H](NC(=O)c1ccc2c(c1)OCCN2Cc1ccc(-c2ccccc2C(=O)O)cc1)c1ccc(C(C)(C)C)cc1 [Example 78, (S)-4′-((7-((1-(4-(tert-butyl)phenyl)ethyl)carbamoyl)-2H-benzo[b][1,4]oxazine-4(3H)-yl)methyl)-[1,1′-biphenyl]-2-carboxylic acid]	++
C[C@H](NC(=O)c1ccc2c(c1)CCCN2Cc1ccc(-c2ccccc2C(N)=O)cc1)c1cccc(F)c1 [Example 45, (S)-1-((2′-carbamoyl-[1,1′-biphenyl]-4-yl)methyl)-N-(1-(3-fluorophenyl)ethyl)-1,2,3,4-tetrahydroquinoline-6-carboxamide]	+++
O=C(NCc1ccccn1)c1ccc2c(c1)CCCN2Cc1ccc(-c2ccccc2C(=O)O)cc1 [Example 26, 4′-((6-((pyridine-2-ylmethyl)carbamoyl)-3,4-dihydroquinoline-1(2H)-yl)methyl)-[1,1′-biphenyl]-2-carboxylic acid]	++
C[C@@H](NC(=O)c1ccc2c(c1)OCCN2Cc1ccc(-c2ccccc2C(=O)O)cc1)c1ccc(C#N)cc1 [Example 81, (R)-4′-((7-((1-(4-cyanophenyl)ethyl)carbamoyl)-2H-benzo[b][1,4]oxazine-4(3H)-yl)methyl)-[1,1′-biphenyl]-2-carboxylic acid]	+++
NC(=O)c1ccccc1-c1ccc(CN2CCOc3cc(C(=O)NCc4cccnc4)ccc32)cc1 [Example 97, 4-((2′-carbamoyl-[1,1′-biphenyl]-4-yl)methyl)-N-(pyridine-3-ylmethyl)-3,4-dihydro-2H-benzo[b][1,4]oxazine-7-carboxamide]	+
C[C@H](NC(=O)c1ccc2c(c1)OCCN2Cc1ccc(-c2ccccc2C(N)=O)cc1)c1cccc(F)c1 [Example 95, (S)-4-((2′-carbamoyl-[1,1′-biphenyl]-4-yl)methyl)-N-(1-(3-fluorophenyl)ethyl)-3,4-dihydro-2H-benzo[b][1,4]oxazine-7-carboxamide]	+++
C[C@H](NC(=O)c1ccc2c(c1)CCCN2Cc1ccc(-c2ccccc2C(=O)O)cc1)c1ccc2ccccc2c1 [Example 20, (S)-4′-((6-((1-(naphthalene-2-yl)ethyl)carbamoyl)-3,4-dihydroquinoline-1(2H)-yl)methyl)-[1,1′-biphenyl]-2-carboxylic acid]	++++
C[C@H](NC(=O)c1ccc2c(c1)OCCN2Cc1ccc(-c2ccccc2C(=O)O)cc1)c1ccc(C(F)(F)F)cc1 [Example 76, (S)-4′-((7-((1-(4-(trifluoromethyl)phenyl)ethyl)carbamoyl)-2H-benzo[b][1,4]oxazine-4(3H)-yl)methyl)-[1,1′-biphenyl]-2-carboxylic acid]	+++
COc1cccc([C@H](C)NC(=O)c2ccc3c(c2)CCCN3Cc2ccc(-c3ccccc3C(=O)O)cc2)c1 [Example 22, (S)-4′-((6-((1-(3-methoxyphenyl)ethyl)carbamoyl)-3,4-dihydroquinoline-1(2H)-yl)methyl)-[1,1′-biphenyl]-2-caboxylic acid]	+++
C[C@H](NC(=O)c1ccc2c(c1)CCCN2Cc1ccc(-c2ccccc2C(=O)O)cc1)c1cccc2ccccc12 [Example 10, (S)-4′-((6-((1-(naphthalene-1-yl)ethyl)carbamoyl)-3,4-dihydroquinoline-1(2H)-yl)methyl)-[1,1′-biphenyl]-2-carboxylic acid]	+++
C[C@H](NC(=O)c1ccc2c(c1)OCCN2Cc1ccc(-c2ccccc2C(=O)O)cc1)c1ccc(F)cc1 [Example 63, (S)-4′-((7-((1-(4-fluorophenyl)ethyl)carbamoyl)-2H-benzo[b][1,4]oxazine-4(3H)-yl)methyl)-[1,1′-biphenyl]-2-carboxylic acid]	+

Continued, values first:

Binding assay (1 μLM)	SMILES
++++	C[C@H](NC(=O)c1ccc2c(c1)CCCN2Cc1cc(-c2ccccc2C(=O)O)ccc1F)c1ccccc1 [Example 134, (S)-4′-fluoro-3′-((6-((1-phenylethyl)carbamoyl)-3,4-dihydroquinoline-1(2H)-yl)methyl)-[1,1′-biphenyl]-2-carboxylic acid]
+++	C[C@H](NC(=O)c1ccc2c(c1)CCCN2Cc1cccc(-c2ccccc2C(N)=O)c1)c1ccccc1 [Example 117, (S)-1-((2′-carbamoyl-[1,1′-biphenyl]-3-yl)methyl)-N-(1-phenylethyl)-1,2,3,4-tetrahydroquinoline-6-carboxamide]
+++	C[C@H](NC(=O)c1ccc2c(c1)CCCN2Cc1cc(-c2ccccc2C(N)=O)ccc1F)c1ccccc1 [Example 135, (S)-1-((2′-carbamoyl-4-fluoro-[1,1′-biphenyl]-3-yl)methyl)-N-(1-phenylethyl)-1,2,3,4-tetrahydroquinoline-6-carboxamide]
++	C[C@H](NC(=O)c1ccc2c(c1)OCCN2Cc1ccccc1-c1ccc(C(N)=O)cc1)c1ccccc1 [Example 143, (S)-4-((4′-carbamoyl-[1,1′-biphenyl]-2-yl)methyl)-N-(1-phenylethyl)-3,4-dihydro-2H-benzo[b][1,4]oxazine-7-carboxamide]
+	C[C@H](NC(=O)c1ccc2c(c1)OCCN2Cc1ccccc1-c1ccc(C(=O)O)cc1)c1ccc([N+](=O)[O-])cc1 [Example 146, (S)-2′-((7-((1-(4-nitrophenyl)ethyl)carbamoyl)-2H-benzo[b][1,4]oxazine-4 (3H)-yl)methyl)-[1,1′-biphenyl]-4-carboxylic acid]
++	C[C@H](NC(=O)c1ccc2c(c1)CCCN2Cc1ccccc1-c1ccc(C(N)=O)cc1)c1ccc2ccccc2c1 [Example 160, (S)-1-((4′-carbamoyl-[1,1′-biphenyl]-2-yl)methyl)-N-(1-(naphthalene-2-yl)ethyl)-1,2,3,4-tetrahydroquinoline-6-carboxamide]
++++	Cc1ccc([C@H](C)NC(=O)c2ccc3c(c2)CCCN3Cc2ccc(-c3ccccc3C(=O)O)cc2F)cc1F [Example 111, (S)-3′-fluoro-4′-((6-((1-(3-fluoro-4-methylphenyl)ethyl)carbamoyl)-3,4-dihydroquinoline-1(2H)-yl)methyl)-[1,1′-biphenyl]-2-caboxylic acid]
+++	C[C@H](NC(=O)c1ccc2c(c1)OCCN2Cc1ccccc1-c1ccc(C(=O)O)cc1)c1ccc2ccccc2c1 [Example 147, (S)-2′-((7-((1-(naphthalene-2-yl)ethyl)carbamoyl)-2H-benzo[b][1,4]oxazine-4(3H)-yl)methyl)-[1,1′-biphenyl]-4-carboxylic acid]
++++	C[C@H](NC(=O)c1ccc2c(c1)CCCN2Cc1ccc(-c2ccccc2C(=O)O)cc1F)c1ccc2ccccc2c1 [Example 108, (S)-3′-fluoro-4′-((6-((1-(naphthalene-2-yl)ethyl)carbamoyl)-3,4-dihydroquinoline-1(28)-yl)methyl)-[1,1′-biphenyl]-2-carboxylic acid]
++++	Cc1ccc([C@H](C)NC(=O)c2ccc3c(c2)CCCN3Cc2cc(-c3ccccc3C(=O)O)ccc2F)cc1F [Example 138, (S)-4′-fluoro-3′-((6-((1-(3-fluoro-4-methylphenyl)ethyl)carbamoyl)-3,4-dihydroquinoline-1(2H)-yl)methyl)-[1,1′-biphenyl]-2-caboxylic acid]
